In ChEMBL document CHEMBL2073941, “TP-search Transporter Database” (Gastroenterology, 1994):

Molecular target: T1, OAT1 (Solute carrier family 22 member 6) (Homo sapiens, UniProt Q4U2R8)
T1 sequence (Q4U2R8 whole entry): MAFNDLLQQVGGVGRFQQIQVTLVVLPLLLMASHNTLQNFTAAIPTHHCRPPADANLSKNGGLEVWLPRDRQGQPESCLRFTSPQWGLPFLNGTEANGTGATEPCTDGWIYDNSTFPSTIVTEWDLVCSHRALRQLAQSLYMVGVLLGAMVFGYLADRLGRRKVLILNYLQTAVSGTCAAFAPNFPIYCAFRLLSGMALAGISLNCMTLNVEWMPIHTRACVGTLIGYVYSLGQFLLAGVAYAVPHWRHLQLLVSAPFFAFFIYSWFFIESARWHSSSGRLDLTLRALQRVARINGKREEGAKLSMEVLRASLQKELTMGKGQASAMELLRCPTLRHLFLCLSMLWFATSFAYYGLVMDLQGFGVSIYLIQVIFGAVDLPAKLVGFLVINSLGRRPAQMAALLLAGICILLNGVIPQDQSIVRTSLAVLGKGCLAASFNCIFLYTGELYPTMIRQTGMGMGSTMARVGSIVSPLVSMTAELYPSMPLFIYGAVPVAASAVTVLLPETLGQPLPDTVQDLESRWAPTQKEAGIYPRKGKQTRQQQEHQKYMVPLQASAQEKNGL
Test: TP_TRANSPORTER: inhibition of Urate uptake (Urate: 300 uM, DIDS: 2000 uM) in OAT1-expressing S2 cells
Format: functional, cell-based
Set-up: scale not given: the % may be the effect or the level left
Conditions: S2 cells that express OAT1, probe urate (300 uM); read-out: Activity

activity at 2000 µM: 64.2%
Compound: O=S(=O)(O)c1cc(N=C=S)ccc1/C=C/c1ccc(NC=S)cc1S(=O)(=O)O
